Values of other authors in patent US20240287015A1, “Method for Producing an Ionizable Lipid” (NanoVation Therapeutics Inc., priority 2021, published 2024).

Conditions: siRNA LNP formulations; MC3 relative to similar KC2-based formulations

CCCCC/C=C\C/C=C\CCCCCCCCC(CCCCCCCC/C=C\C/C=C\CCCCC)OC(=O)CCCN(C)C [MC3, (6Z,9Z,28Z,31Z)-heptatriacont-6,9,28,31-tetraene-19-yl 4-(dimethylamino)butanoate]
times less siRNA required than KC2 to attain the same end result: about 3 times
